Measured values as given in patent US10098350B2, “Fungicidal amides” (E. I. DU PONT DE NEMOURS AND COMPANY, priority 2013, dated 2018).

Experiments:
Assay type in all cases: in vivo
[1] = tested on: Stagonospora nodorum (also known as Septoria nodorum); experiment: Test B: wheat seedlings sprayed with test suspension, inoculated with Stagonospora nodorum (wheat glume blotch), visual disease rating
Source text: (§1) General protocol for preparing test suspensions for Tests A-E: the test compounds were first dissolved in acetone in an amount equal to 3% of the final volume and then suspended at the desired concentration (in ppm) in acetone and purified water (50/50 mix by volume) containing 250 ppm of the surfactant Trem® 014 (polyhydric alcohol esters). The resulting test suspensions were then used in Tests A-E. Samples were applied to plants at either a 10 ppm (**), 40 ppm, 50 ppm (*) or 200 ppm (#) test solution to the point of run-off on the test plants with the equivalent of a rate of 40 g ai/ha, 160 g ai/ha, 200 g ai/ha, or 800 g ai/ha, respectively.
The test suspension was sprayed to the point of run-off on wheat seedlings. The following day the seedlings were inoculated with a spore suspension of Stagonospora nodorum (also known as Septoria nodorum; the causal agent of wheat glume blotch) and incubated in a saturated atmosphere at 20° C. for 48 h, and then moved to a growth chamber at 20° C. for 6 days, after which time visual disease ratings were made.
(§2) Results for Tests A-E are given in Table A. In the Table, a rating of 100 indicates 100% disease control and a rating of 0 indicates no disease control (relative to the controls). A dash (-) indicates no test results.

Septoria tritici = experiment: Test C: wheat seedlings sprayed with test suspension, inoculated with Septoria tritici (wheat leaf blotch), visual disease rating
Source text: as §1
(§3) The test suspension was sprayed to the point of run-off on wheat seedlings. The following day the seedlings were inoculated with a spore suspension of Septoria tritici (the causal agent of wheat leaf blotch) and incubated in a saturated atmosphere at 24° C. for 48 h, and then moved to a growth chamber at 20° C. for 21 days, after which time visual disease ratings were made.
as §2

[2] = tested on: Puccinia recondite f. sp. tritici; experiment: Test D: wheat seedlings sprayed with test suspension, inoculated with Puccinia recondite f. sp. tritici (wheat leaf rust), visual disease rating
Source text: as §1
as §3, with “Puccinia recondite f. sp. tritici;” for “Septoria tritici”, “rust)” for “blotch)”, “20°” for “24°”, “24” for “48”, “6” for “21”
as §2

[3] = tested on: Erysiphe graminis f. sp. tritici; experiment: Test E: wheat seedlings sprayed with test suspension, inoculated with Erysiphe graminis f. sp. tritici (wheat powdery mildew), visual disease rating
Source text: as §1
The test suspension was sprayed to the point of run-off on wheat seedlings. The following day the seedlings were inoculated with a spore dust of Erysiphe graminis f. sp. tritici, (the causal agent of wheat powdery mildew) and incubated in a growth chamber at 20° C. for 7 or 8 days, after which time visual disease ratings were made.
as §2

[4] = Cmpd. No. marked '**' (other test rate; meaning of mark not shown)
[5] = Cmpd. No. unmarked, 100 = 100% disease control, 0 = no control relative to controls

SMILES | Test B rating (% disease control) [1, 4] [%] | Test C rating (% disease control) (Septoria tritici; [4]) [%] | Test D rating (% disease control) [2, 4] [%] | Test E rating (% disease control) [3, 4] [%] | Test B rating (% disease control) [1, 5] [%] | Test C rating (% disease control) (Septoria tritici; [5]) [%] | Test D rating (% disease control) [2, 5] [%] | Test E rating (% disease control) [3, 5] [%]
CC(c1ncc(-n2cc(Cl)cn2)cc1Cl)N(C(=O)c1c(C(F)F)nn(C)c1F)C1CC1 (racemic) [compound 97] | 100 | 97 | 94 | 94 | – | – | – | –
Cn1nc(C(F)F)c(C(=O)N(Cc2ccc(-n3ccc(C(F)(F)F)n3)c(Cl)c2)C2CC2)c1F [compound 99] | 59 | 96 | 97 | 89 | – | – | – | –
Cn1nc(C(F)F)c(C(=O)N(Cc2ccc(-n3ccc(C(F)(F)F)n3)cc2Cl)C2CCC2)c1F [Compound 162] | 0 | 64 | 0 | 0 | – | – | – | –
Cn1nc(C(F)F)c(C(=O)N(Cc2ccc(-n3cc(Cl)cn3)cc2Cl)C2CC2)c1F [compound 143] | – | – | – | – | 100 | 99 | 99 | 99
COc1ccc(C(C)N(C(=O)c2cn(C)nc2C(F)F)C2CC2)cc1-n1ccc(C(F)(F)F)n1 (stereo not drawn) [compound 44] | – | – | – | – | 78 | 87 | 0 | 0
Cc1cc(-n2ccc(C(F)(F)F)n2)ccc1CN(C(=O)c1c(C(F)F)nn(C)c1F)C1CC1 [compound 105] | – | – | – | – | 100 | 98 | 99 | 98
Cn1nc(C(F)F)c(C(=O)N(Cc2ccc(-n3ccc(C(F)(F)F)n3)cc2OCC#N)C2CC2)c1F [compound 61] | – | – | – | – | 0 | 90 | 9 | 21
Cn1cc(C(=O)N(Cc2c(Cl)cc(-n3ccc(Br)n3)cc2Cl)C2CC2)c(C(F)F)n1 [compound 40] | – | – | – | – | 99 | 99 | 99 | 89
COc1ccc(C(C)N(C(=O)c2c(C(F)F)nn(C)c2F)C2CC2)cc1-n1ccc(C(F)(F)F)n1 (stereo not drawn) [compound 55] | – | – | – | – | 100 | 97 | 61 | 87
CC(c1cc(-n2ccc(C(F)(F)F)n2)ccc1Cl)N(C(=O)c1cn(C)nc1C(F)F)C1CC1 (stereo not drawn) [compound 119] | – | – | – | – | 99 | 92 | 93 | 92
Cn1nc(C(F)F)c(C(=O)N(Cc2c(Cl)cc(-n3cccn3)cc2Cl)C2CC2)c1F [compound 125] | – | – | – | – | 100 | 99 | 100 | 92
Cn1nc(C(F)F)c(C(=O)N(Cc2ccc(-n3ccc(C(F)(F)F)n3)cc2Cl)C2COC2)c1F [Compound 164] | 0 | 46 | 0 | 0 | – | – | – | –
Cn1nc(C(F)F)c(C(=O)N(Cc2ccc(-n3cnc(Cl)n3)cc2Cl)C2CC2)c1F [compound 146] | – | – | – | – | 0 | 94 | 0 | 0
Cn1nc(C(F)F)c(C(=O)N(Cc2ccc(-n3cccn3)cc2Cl)C2CC2)c1F [compound 46] | – | – | – | – | 100 | 99 | 94 | 98
CC(c1cc(-n2ccc(C(F)(F)F)n2)ccc1[N+](=O)[O-])N(C(=O)c1cn(C)nc1C(F)F)C1CC1 (stereo not drawn) [compound 129] | – | – | – | – | 0 | 10 | 0 | 0
